According to paper PMC6344531, “Discovery and evaluation of inhibitor of LARP6 as specific antifibrotic compound” (Scientific Reports, 2019):

Biological target: T1, LARP6 (Homo sapiens, UniProt Q9BRS8)
T1 construct: LARP6*, amino-acids 72–303, His-tag
T1 sequence (Q9BRS8 72-303): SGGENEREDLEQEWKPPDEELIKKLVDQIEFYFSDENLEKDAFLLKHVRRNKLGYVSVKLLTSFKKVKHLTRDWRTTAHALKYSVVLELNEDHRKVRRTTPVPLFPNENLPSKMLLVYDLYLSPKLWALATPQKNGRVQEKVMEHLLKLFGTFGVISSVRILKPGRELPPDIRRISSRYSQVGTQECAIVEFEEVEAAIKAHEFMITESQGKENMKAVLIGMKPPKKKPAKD
Assay: FP dissociation of LARP6* from fluorescein-labelled […]'SL RNA; intrinsic tryptophan fluorescence quenching of LARP6*; gel mobility shift with extracts of treated cells
Type: binding

IC50: ~15 µM
SMILES: Cc1cccn2c(=O)c3cc(C(=O)Nc4cccnc4)n(C)c3nc12 [C9]
